From paper PMC12027992, “New Amidino-Substituted Benzimidazole Derivatives as Human Dipeptidyl Peptidase III Inhibitors: Synthesis, In Vitro Evaluation, QSAR, and Molecular Docking Studies” (International Journal of Molecular Sciences, 2025)
Where “and” joins values, the source holds several entries; their conditions need not be identical. Identical values can stand only once. Counter-ions that a name gives are not always drawn. Residues, ends and D or L forms follow the SMILES beside them.

Assays:
hDPP III = target: hDPP III; set-up: method as in PMID 18163885; settings: read-out: inhibition constant (Ki); cited from earlier work
human DPP III = target: T1, human DPP III (Homo sapiens, UniProt Q9NY33); experiment: hDPP III enzyme activity assay (% inhibition and IC50), substrate Arg-Arg-2-naphthylamide; assay type: biochemical; settings: for IC50: at least seven concentrations, nonlinear regression, three replicates; for log % inh. exp.: logarithm of % inhibition at 30 μmol L^–1; for inhibition at 30 µM: pH 7.4, 30 μmol L^–1 compound, recombinant hDPP III 0.75 nM, Arg-Arg-2-naphthylamide 40 μM, pH 7.4, 37 °C, average of three determinations ± SD
T1 construct: C-terminally truncated human DPP III was expressed and purified as described previously; His-tag (TEV-cleavable) (C, cleaved yes); made in house; host or cells: E. coli BL21-CodonPlus (DE3)-RIL
T1 sequence (Q9NY33 1-726 limits assumed): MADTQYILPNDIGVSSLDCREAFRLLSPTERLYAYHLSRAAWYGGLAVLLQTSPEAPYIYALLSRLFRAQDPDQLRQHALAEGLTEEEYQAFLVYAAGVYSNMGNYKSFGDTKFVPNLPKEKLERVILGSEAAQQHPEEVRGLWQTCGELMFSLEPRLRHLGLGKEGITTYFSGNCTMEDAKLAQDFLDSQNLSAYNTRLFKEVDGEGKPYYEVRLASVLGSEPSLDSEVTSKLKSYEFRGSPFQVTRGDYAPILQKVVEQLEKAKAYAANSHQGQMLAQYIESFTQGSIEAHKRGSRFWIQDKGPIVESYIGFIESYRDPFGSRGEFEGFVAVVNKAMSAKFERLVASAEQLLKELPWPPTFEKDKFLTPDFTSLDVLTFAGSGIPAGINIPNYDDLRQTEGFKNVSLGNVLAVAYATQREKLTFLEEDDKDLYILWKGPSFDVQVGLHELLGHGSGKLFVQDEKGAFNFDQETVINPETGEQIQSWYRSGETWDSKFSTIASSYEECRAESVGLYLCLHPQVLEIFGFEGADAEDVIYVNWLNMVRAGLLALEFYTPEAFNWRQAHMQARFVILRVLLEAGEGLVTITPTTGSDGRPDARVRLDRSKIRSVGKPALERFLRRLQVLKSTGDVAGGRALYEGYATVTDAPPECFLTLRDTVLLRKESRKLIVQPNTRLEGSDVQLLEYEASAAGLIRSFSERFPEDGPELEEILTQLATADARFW
Protocol: C-terminally truncated human DPP III was expressed and purified as described previously. In brief, C-terminal HIS-tagged recombinant human DPP III was expressed in E. coli BL21-CodonPlus (DE3)-RIL cells, Agilent (Santa Clara, CA, USA). Overexpression was induced by 0.25 mM isopropyl-b-D-1-thiogalactopyranoside (IPTG, Fermentas), and the cells were grown for 20 h at 18 °C and 130 rpm. Obtained bacterial cells were lysed by a combination of lysozyme lysis and sonication, then treated with DNase I and centrifuged at 4000× g for 15 min to precipitate the cell debris. The lysate was purified by affinity chromatography on a Ni-NTA column (5 mL prepacked His-trap FF) GE Healthcare (Chicago, IL, USA) using a buffer system with 50 mM Tris- HCl, pH = 8.0, 300 mM NaCl, and increasing imidazole concentrations: 10 mM for lysis, 20 mM for wash, and 300 mM for elution buffer. All hDPP III active fractions were pooled and incubated with TEV protease to remove the HIS-tag. Human DPP III was recovered using flow-through affinity chromatography (TEV protease is His-tagged), and additionally purified on a 16/60 Superdex-200 gel-filtration column GE Healthcare (Chicago, IL, USA). Fractions with hDPP III were desalted on PD-10 columns GE Healthcare (Chicago, IL, USA). Purified protein in 20 mM Tris-HCl buffer pH = 7.4 was stored at -80 °C until use. Recombinant hDPP III (0.75 nM) was preincubated with benzimidazole derivatives (30 μM) first for 10 min at 25 °C and then for 5 min at 37 °C in 50 mM Tris-HCl buffer, pH 7.4. The enzymatic reaction was started with Arg-[…]-naphthylamide (40 μM) as a substrate, and after the 15 min incubation at 37 °C in a water bath, the reaction was stopped, and the absorbance was measured using the spectrophotometric method described by Abramić et al.. All benzimidazole derivatives were prepared daily in dimethyl sulfoxide, and the resulting stock solutions (4 mM) were transparent, without turbidity or solid residue. […] Before the enzyme assay, stock solutions were diluted with 50 mM Tris-HCl buffer, pH 7.4. […] The percentage of enzyme inhibition under at least seven different concentration gradients was imported into GraphPad Prism 10.4.1 software to calculate IC50 values of the compounds using nonlinear regression analysis from the mean inhibitory value of three replicates. The relative occupancy of inhibition for compounds with the same substituent at position 6 of the benzimidazole core was defined as the sum of their % inh., expressed relative to their maximum achievable inhibition, which was set at 100.

HCT116 = system: HCT116; set-up: method as in doi:10.5562/cca3531; settings: cited from earlier work
MCF-7 = system: MCF-7; set-up: method as in doi:10.5562/cca3531; settings: cited from earlier work
H460 = system: H460; set-up: method as in doi:10.5562/cca3531; settings: cited from earlier work

SMILES | IC50 (human DPP III) | log % inh. exp. (human DPP III) | inhibition at 30 µM (human DPP III) [%] | Ki (hDPP III) [µM] | antiproliferative activity (HCT116) | antiproliferative activity (MCF-7) | antiproliferative activity (H460)
N[C@@H](Cc1ccc(O)cc1)C(=O)N[C@@H](Cc1ccccc1)C(=O)NO [Tyr-Phe-NHOH] (HELM PEPTIDE1{Y.F.[ON[*:1]]}$$$$V2.0) |  |  |  | 0.15 ± 0.04 |  |  | 
c1ccc2c(c1)cc(-c1nc3cc(C4=NCCN4)ccc3[nH]1)c1ccccc12 [b2, 5(6)-(2-imidazolinyl)-2-(phenanthren-9-yl)-1H-benzo[d]imidazole] | < 20 µM and 11.1 µM | 2.00 | ≥ 90 |  |  |  | 
Oc1ccc(-c2nc3ccc(C4=NCCN4)cc3[nH]2)c(O)c1O [b13, 5(6)-(4,5-Dihydro-1H-imidazol-3-ium-2-yl)-2-(2,3,4-trihydroxyphenyl)benzimidazole chloride] | < 20 µM and 1.03 µM | 2.00 | ≥ 90 |  |  |  | 
c1ccc2c(c1)cc(-c1nc3cc(C4=NCCCN4)ccc3[nH]1)c1ccccc12 [c8] |  | 1.71 | 51.7 ± 0.2 |  |  |  | 

Now from value to compound, other results behind:

IC50 (human DPP III) | log % inh. exp. (human DPP III) | inhibition at 30 µM (human DPP III) [%] | SMILES | Ki (hDPP III) [µM] | antiproliferative activity (HCT116) | antiproliferative activity (MCF-7) | antiproliferative activity (H460)
< 20 µM and 8.44 µM | 2.00 | ≥ 90 | CCN(CC)c1ccc(-c2nc3ccc(C(=N)N)cc3[nH]2)c(O)c1 [a2, 5(6)-amidino-2-[4-(N,N-diethylamino)-2-hydroxyphenyl]benzimidazole hydrochloride] |  |  |  | 
< 20 µM and 8.34 µM | 2.00 | ≥ 90 | N=C(N)c1ccc2nc(-c3ccc(-c4cccs4)s3)[nH]c2c1 [a4] |  |  |  | 
< 20 µM and 9.83 µM | 1.99 | ≥ 90 | N=C(N)c1ccc2nc(-c3ccc(C(F)(F)F)cc3)[nH]c2c1 [a6] |  | displayed antiproliferative activity | displayed antiproliferative activity | displayed antiproliferative activity
< 20 µM and 4.98 µM | 2.00 | ≥ 90 | c1csc(-c2ccc(-c3nc4ccc(C5=NCCN5)cc4[nH]3)s2)c1 [b4] |  |  |  | 
< 20 µM and 8.18 µM | 2.00 | ≥ 90 | FC(F)(F)c1ccc(-c2nc3ccc(C4=NCCN4)cc3[nH]2)cc1 [b6] |  | displayed antiproliferative activity | displayed antiproliferative activity | displayed antiproliferative activity
